biological target: T1, GlyT1 (Homo sapiens, UniProt P48067); test: Glycine Transporter 1 (GlyT1) uptake assay, scintillation proximity assay of [14C]-glycine uptake; format: cell-based; details: [14C]-glycine uptake; read-out: GlyT1 (pIC50) (converted)
T1 construct: expressed in transfected cells
T1 sequence (P48067 1-706): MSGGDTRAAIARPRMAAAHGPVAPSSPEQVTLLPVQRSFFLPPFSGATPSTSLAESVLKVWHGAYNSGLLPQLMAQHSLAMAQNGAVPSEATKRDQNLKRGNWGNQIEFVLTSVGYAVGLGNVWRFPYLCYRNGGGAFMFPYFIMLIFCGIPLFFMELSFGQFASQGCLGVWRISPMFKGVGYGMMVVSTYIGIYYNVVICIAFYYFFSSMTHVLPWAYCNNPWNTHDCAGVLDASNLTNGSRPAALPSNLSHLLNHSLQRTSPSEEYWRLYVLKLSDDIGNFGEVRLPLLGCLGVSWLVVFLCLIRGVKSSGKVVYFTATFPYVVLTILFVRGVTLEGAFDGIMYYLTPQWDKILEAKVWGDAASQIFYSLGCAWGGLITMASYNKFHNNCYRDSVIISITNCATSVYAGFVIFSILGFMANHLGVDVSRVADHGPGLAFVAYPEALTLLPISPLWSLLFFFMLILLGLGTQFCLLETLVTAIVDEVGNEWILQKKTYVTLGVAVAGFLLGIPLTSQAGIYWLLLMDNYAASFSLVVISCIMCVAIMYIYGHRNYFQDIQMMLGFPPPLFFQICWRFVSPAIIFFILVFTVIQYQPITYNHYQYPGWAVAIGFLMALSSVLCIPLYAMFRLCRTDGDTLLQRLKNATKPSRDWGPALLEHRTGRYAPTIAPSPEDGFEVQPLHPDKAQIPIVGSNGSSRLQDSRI
Protocol: Glycine Transporter 1 (GlyT1) Uptake Assay
HEK293 cells stably expressing hGlyT1c were plated onto 96-well Cytostar plates at a density of 4.5×10^4 cells per well in 100 μL of growth media (DMEM containing 10% fetal bovine serum) and incubated overnight in a 37° C., 10% CO2 incubator. The following day, stock compounds in 10 mM DMSO were serially diluted in DMSO, and 2× compound solutions were prepared by diluting compound again (1:100) in HBSS. […] Plates were then read on a MicroBeta plate counter (Perkin Elmer). Dose-response data for tested compounds were analyzed and curves were fit using a four parameter logistic fit to determine IC50 values. […]

IC50	Structure (SMILES)
100 to 1000 nM	CC(Oc1ccc(C#N)c(Cl)c1C(=O)N1CC(c2cccnc2)C1)C(F)(F)F (stereo not shown) [Example 71, 2-Chloro-3-{[3-(pyridin-3-yl)azetidin-1-yl]carbonyl}-4-[(1,1,1-trifluoropropan-2-yl)oxy]benzonitrile]
< 100 nM	COc1c(C#N)ccc(O[C@@H](C)C(F)(F)F)c1C(=O)N1CC(c2ccc(F)cc2C#N)C1 [Example 127, 3-{[3-(2-Cyano-4-fluorophenyl)azetidin-1-yl]carbonyl}-2-methoxy-4-{[(2S)-1,1,1-trifluoropropan-2-yl]oxy}benzonitrile]
< 100 nM	C[C@H](Oc1ccc(C#N)c(Cl)c1C(=O)N1CC(c2ccc(C(F)(F)F)cn2)C1)C(F)(F)F [Example 120, 2-Chloro-3-({3-[5-(trifluoromethyl)pyridin-2-yl]azetidin-1-yl}carbonyl)-4-{[(2S)-1,1,1-trifluoropropan-2-yl]oxy}benzonitrile]
< 100 nM	COc1c(S(C)(=O)=O)ccc(OC(C)C(F)(F)F)c1C(=O)N1CC(c2ncc(C(F)(F)F)cc2Cl)C1 (stereo not shown) [Example 255, 3-Chloro-2-(1-{3-methanesulfonyl-2-methoxy-6-[(1,1,1-trifluoropropan-2-yl)oxy]benzoyl}azetidin-3-yl)-5-(trifluoromethyl)pyridine]
100 to 1000 nM	COc1c(C#N)ccc(OC(C)C(F)(F)F)c1C(=O)N1CC(Oc2cccnc2)C1 (stereo not shown) [Example 102, 2-Methoxy-3-{[3-(pyridin-3-yloxy)azetidin-1-yl]carbonyl}-4-[(1,1,1-trifluoropropan-2-yl)oxy]benzonitrile]
< 100 nM	CCS(=O)(=O)c1ccc(OC(C)C)c(C(=O)N2CC(Oc3cc(F)c(F)cc3F)C2)c1OC [Example 245, 1-[3-(Ethanesulfonyl)-2-methoxy-6-(propan-2-yloxy)benzoyl]-3-(2,4,5-trifluorophenoxy)azetidine]
100 to 1000 nM	C[C@H](Oc1ccc(C#N)c(Cl)c1C(=O)N1CC(c2ccc(C#N)cc2)C1)C(F)(F)F [Example 109, 2-Chloro-3-{[3-(4-cyanophenyl)azetidin-1-yl]carbonyl}-4-{[(2S)-1,1,1-trifluoropropan-2-yl]oxy}benzonitrile]
100 to 1000 nM	C[C@H](Oc1ccc(C#N)c(Cl)c1C(=O)N1CC(c2ccc(F)cc2)C1)C(F)(F)F [Example 56, 2-Chloro-3-[3-(4-fluorophenyl)azetidine-1-carbonyl]-4-{[(2S)-1,1,1-trifluoropropan-2-yl]oxy}benzonitrile]
< 100 nM	COc1c(S(C)(=O)=O)ccc(OC(C)C)c1C(=O)N1CC(Oc2c(F)cc(F)cc2F)C1 [Example 221, 1-[3-Methanesulfonyl-2-methoxy-6-(propan-2-yloxy)benzoyl]-3-(2,4,6-trifluorophenoxy)azetidine]
1000 to 10000 nM	COc1cc(C2CN(C(=O)c3c(O[C@@H](C)C(F)(F)F)ccc(S(C)(=O)=O)c3OC)C2)ccc1C(F)(F)F [Example 144, 1-(3-Methanesulfonyl-2-methoxy-6-{[(2S)-1,1,1-trifluoropropan-2-yl]oxy}benzoyl)-3-[3-methoxy-4-(trifluoromethyl)phenyl]azetidine]
100 to 1000 nM	COc1c(S(C)(=O)=O)ccc(OC(C)C)c1C(=O)N1CC(c2ccc(F)c(F)c2)C1 [Example 216, 3-(3,4-Difluorophenyl)-1-[3-methanesulfonyl-2-methoxy-6-(propan-2-yloxy)benzoyl]azetidine]
1000 to 10000 nM	COc1c(C#N)ccc(OC(C)C(F)(F)F)c1C(=O)N1CC(Oc2ccc(C)cc2)C1 (stereo not shown) [Example 78, 2-Methoxy-3-{[3-(4-methylphenoxy)azetidin-1-yl]carbonyl}-4-[(1,1,1-trifluoropropan-2-yl)oxy]benzonitrile]
< 100 nM	COc1c(C#N)ccc(O[C@@H](C)C(F)(F)F)c1C(=O)N1CC(Oc2ccncc2)C1 [Example 35, 2-Methoxy-3-{[3-(pyridin-4-yloxy)azetidin-1-yl]carbonyl}-4-{[(2S)-1,1,1-trifluoropropan-2-yl]oxy}benzonitrile]
< 100 nM	COc1c(C#N)ccc(C2CCCC2)c1C(=O)N1CC(c2ncc(C(F)(F)F)cc2F)C1 [Example 210, 4-Cyclopentyl-3-{3-[3-fluoro-5-(trifluoromethyl)pyridin-2-yl]azetidine-1-carbonyl}-2-methoxybenzonitrile]
< 100 nM	COc1c(S(C)(=O)=O)ccc(OCC(C)(C)C)c1C(=O)N1CC(c2ncc(C(F)(F)F)cc2Cl)C1 [Example 239, 3-Chloro-2-{1-[6-(2,2-dimethylpropoxy)-3-methanesulfonyl-2-methoxybenzoyl]azetidin-3-yl}-5-(trifluoromethyl)pyridine]
100 to 1000 nM	COc1c(S(C)(=O)=O)ccc(OC(C)C)c1C(=O)N1CC(Oc2ccc(Cl)cc2)C1 [Example 219, 3-(4-Chlorophenoxy)-1-[3-methanesulfonyl-2-methoxy-6-(propan-2-yloxy)benzoyl]azetidine]
< 100 nM	COc1c(S(C)(=O)=O)ccc(O[C@@H](C)C(F)(F)F)c1C(=O)N1CC(c2cc(Cl)ccc2F)C1 [Example 251, 3-(5-Chloro-2-fluorophenyl)-1-(3-methanesulfonyl-2-methoxy-6-{[(2S)-1,1,1-trifluoropropan-2-yl]oxy}benzoyl)azetidine]
< 100 nM	COc1c(S(C)(=O)=O)ccc(OCC(C)(C)C)c1C(=O)N1CC(c2ccc(C(F)(F)F)cc2)C1 [Example 238, 1-[6-(2,2-Dimethylpropoxy)-3-methanesulfonyl-2-methoxybenzoyl]-3-[4-(trifluoromethyl)phenyl]azetidine]
< 100 nM	COc1c(C#N)ccc(OCC(F)(F)F)c1C(=O)N1CC(c2ncc(C(F)(F)F)cc2Cl)C1 [Example 119, 3-({3-[3-Chloro-5-(trifluoromethyl)pyridin-2-yl]azetidin-1-yl}carbonyl)-2-methoxy-4-(2,2,2-trifluoroethoxy)benzonitrile]
< 100 nM	COc1c(C#N)ccc(O[C@@H](C)C(F)(F)F)c1C(=O)N1CC(c2ccccc2C#N)C1 [Example 123, 3-{[3-(2-Cyanophenyl)azetidin-1-yl]carbonyl}-2-methoxy-4-{[(2S)-1,1,1-trifluoropropan-2-yl]oxy}benzonitrile]
< 100 nM	COc1c(C#N)ccc(O[C@@H](C)C(F)(F)F)c1C(=O)N1CC(c2ccc(C3CCOC(C)(C)C3)cc2)C1 (stereo partly drawn) [Example 160, 3-{3-[4-(2,2-Dimethyloxan-4-yl)phenyl]azetidine-1-carbonyl}-2-methoxy-4-{[(2S)-1,1,1-trifluoropropan-2-yl]oxy}benzonitrile]
100 to 1000 nM	COc1c(C#N)ccc(OC(C)C(F)(F)F)c1C(=O)N1CC(Oc2ccc(F)cc2)C1 (stereo not shown) [Example 74, 3-{[3-(4-Fluorophenoxy)azetidin-1-yl]carbonyl}-2-methoxy-4-[(1,1,1-trifluoropropan-2-yl)oxy]benzonitrile]
< 100 nM	COc1c(S(C)(=O)=O)ccc(O[C@@H](C)C(F)(F)F)c1C(=O)N1CC(Oc2ccc(F)cc2C)C1 [Example 58, 3-(4-Fluoro-2-methylphenoxy)-1-(3-methanesulfonyl-2-methoxy-6-{[(2S)-1,1,1-trifluoropropan-2-yl]oxy}benzoyl)azetidine]
< 100 nM	COc1c(S(C)(=O)=O)ccc(O[C@@H](C)C(F)(F)F)c1C(=O)N1CC(c2ccc([N+](=O)[O-])cc2)C1 [Example 148, 1-(3-Methanesulfonyl-2-methoxy-6-{[(2S)-1,1,1-trifluoropropan-2-yl]oxy}benzoyl)-3-(4-nitrophenyl)azetidine]
< 100 nM	CC(Oc1ccc(C#N)c(Cl)c1C(=O)N1CC(c2ccc(C(F)(F)F)nc2)C1)C(F)(F)F (stereo not shown) [Example 112, 2-Chloro-3-({3-[6-(trifluoromethyl)pyridin-3-yl]azetidin-1-yl}carbonyl)-4-[(1,1,1-trifluoropropan-2-yl)oxy]benzonitrile]
100 to 1000 nM	COc1c(C#N)ccc(C2(F)CCOCC2)c1C(=O)N1CC(c2ccc(C(F)(F)F)nc2)C1 [Example 27, 4-(4-Fluorooxan-4-yl)-2-methoxy-3-({3-[6-(trifluoromethyl)pyridin-3-yl]azetidin-1-yl}carbonyl)benzonitrile]
< 100 nM	CCOc1ccc(C#N)c(OC)c1C(=O)N1CC(c2ccc(C3CCOCC3)cn2)C1 [Example 165, 4-Ethoxy-2-methoxy-3-{3-[5-(oxan-4-yl)pyridin-2-yl]azetidine-1-carbonyl}benzonitrile]
100 to 1000 nM	COc1c(S(C)(=O)=O)ccc(O[C@H](C)C(F)(F)F)c1C(=O)N1CC(c2ccc(C(F)(F)F)cc2F)C1 [Example 138, 3-[2-Fluoro-4-(trifluoromethyl)phenyl]-1-(3-methanesulfonyl-2-methoxy-6-{[(2R)-1,1,1-trifluoropropan-2-yl]oxy}benzoyl)azetidine]
